Reference: ChEMBL document CHEMBL1201862, “PubChem BioAssay data set” (2004)
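Five concentrations, 48 hours, 96-well plates. Here, GI50 denotes the concentration required for 50% inhibition of growth.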 Activity calls are given as the source filed them. Cut-off read from the data, not from the text of the source: active = GI50 up to about 1.1 µM and inactive = higher.

Legend:
Assay in all cases: NCI tumour cell line growth inhibition, 48 h
786-0 = test system: 786-0
A549 = test system: A549
ACHN = test system: ACHN
BT-549 = test system: BT-549
CCRF-CEM = test system: CCRF-CEM
HL-60 = test system: HL-60
HOP-92 = test system: HOP-92
KM12 = test system: KM12
MDA-MB-435 = test system: MDA-MB-435
OVCAR-5 = test system: OVCAR-5
OVCAR-8 = test system: OVCAR-8
RXF 393 = test system: RXF 393
SF-539 = test system: SF-539
SK-MEL-28 = test system: SK-MEL-28
SNB-19 = test system: SNB-19
SNB-75 = test system: SNB-75
SR = test system: SR
T47D = test system: T47D
UACC-257 = test system: UACC-257
HCC 2998 = test system: HCC 2998

Measured: GI50

CCCCCCCCCCCCCCCC(=O)OCC(COP(=O)(O)OCCNC(=O)CCSSc1ccccn1)OC(=O)CCCCCCCCCCCCCCC (stereo unspecified)
inactive: 786-0 > 100 µM | A549 > 100 µM | ACHN > 100 µM | BT-549 > 100 µM | CCRF-CEM > 100 µM | HL-60 > 100 µM | HOP-92 > 100 µM | KM12 > 100 µM | MDA-MB-435 > 100 µM | OVCAR-5 > 100 µM | OVCAR-8 > 100 µM | RXF 393 > 100 µM | SF-539 > 100 µM | SK-MEL-28 > 100 µM | SNB-19 > 100 µM | SNB-75 > 100 µM | SR > 100 µM | T47D > 100 µM | UACC-257 > 100 µM

N=C(N)N/N=C/c1c(-c2ccc(Cl)c(Cl)c2Cl)nc2sccn12
inactive: 786-0 1.41 µM | A549 1.53 µM | ACHN 3.23 µM | BT-549 1.56 µM | HL-60 1.63 µM | HOP-92 1.44 µM | KM12 1.58 µM | MDA-MB-435 1.85 µM | OVCAR-5 1.49 µM | OVCAR-8 1.71 µM | SF-539 3.33 µM | SK-MEL-28 1.73 µM | SNB-19 1.33 µM | SNB-75 1.49 µM | T47D 1.59 µM | UACC-257 1.65 µM

O=C(Nc1ccc(N2C(=O)CSC2c2cccs2)cc1)c1ccc(N2C(=O)CSC2c2cccs2)cc1 (stereo unspecified)
inactive: 786-0 58.6 µM | A549 37.2 µM | ACHN > 100 µM | BT-549 > 100 µM | CCRF-CEM 44.2 µM | HCC 2998 > 100 µM | HOP-92 > 100 µM | KM12 > 100 µM | MDA-MB-435 83.4 µM | OVCAR-5 > 100 µM | OVCAR-8 > 100 µM | RXF 393 > 100 µM | SF-539 > 100 µM | SK-MEL-28 > 100 µM | SNB-19 49 µM | SNB-75 > 100 µM | T47D 46.5 µM | UACC-257 > 100 µM

NC(CSCc1ccc(I)cc1)C(=O)O (stereo unspecified)
inactive: 786-0 > 100 µM | A549 > 100 µM | ACHN > 100 µM | BT-549 > 100 µM | CCRF-CEM > 100 µM | HCC 2998 > 100 µM | HL-60 > 100 µM | HOP-92 > 100 µM | KM12 > 100 µM | MDA-MB-435 > 100 µM | OVCAR-5 > 100 µM | OVCAR-8 > 100 µM | RXF 393 > 100 µM | SK-MEL-28 > 100 µM | SNB-19 > 100 µM | SNB-75 > 100 µM | T47D > 100 µM | UACC-257 > 100 µM

O=C1c2ccccc2C(O)(O)C1(O)C1(O)C(=O)c2ccccc2C1(O)O (stereo unspecified)
inactive: 786-0 38.9 µM | A549 30.1 µM | ACHN 21.3 µM | BT-549 55.6 µM | CCRF-CEM 16.9 µM | HL-60 18.9 µM | HOP-92 37.6 µM | KM12 39.6 µM | MDA-MB-435 16.6 µM | OVCAR-5 65.2 µM | OVCAR-8 35.9 µM | RXF 393 26.6 µM | SF-539 24.2 µM | SK-MEL-28 > 100 µM | SNB-19 91.8 µM | SNB-75 15.6 µM | T47D 23.1 µM

CC(=O)n1cc(OP(=O)(Oc2ccccc2)Oc2ccccc2)c2ccccc21
inactive: 786-0 32.1 µM | A549 32.4 µM | BT-549 34.4 µM | CCRF-CEM 22.9 µM | HL-60 16 µM | KM12 35.6 µM | MDA-MB-435 17.9 µM | OVCAR-8 39.7 µM | SF-539 15.8 µM | SK-MEL-28 29.3 µM | SNB-19 58.9 µM | SR 10.9 µM | T47D 32.7 µM | UACC-257 25.7 µM

c1cncc(CNCc2cccnc2)c1
inactive: 786-0 > 100 µM | A549 > 100 µM | ACHN > 100 µM | BT-549 > 100 µM | CCRF-CEM 49.2 µM | HL-60 3.6 µM | HOP-92 > 100 µM | KM12 > 100 µM | MDA-MB-435 > 100 µM | OVCAR-5 > 100 µM | OVCAR-8 > 100 µM | RXF 393 > 100 µM | SF-539 > 100 µM | SK-MEL-28 > 100 µM | SNB-19 > 100 µM | SNB-75 > 100 µM | SR > 100 µM | T47D > 100 µM | UACC-257 > 100 µM

OCC1OC(n2nc(-c3ccccc3)nc2-c2cnccn2)C(O)C1O (stereo unspecified)
inactive: 786-0 > 100 µM | A549 > 100 µM | BT-549 > 100 µM | CCRF-CEM > 100 µM | HCC 2998 > 100 µM | HL-60 > 100 µM | HOP-92 > 100 µM | KM12 > 100 µM | MDA-MB-435 > 100 µM | OVCAR-5 > 100 µM | OVCAR-8 > 100 µM | SF-539 > 100 µM | SK-MEL-28 > 100 µM | SNB-19 > 100 µM | SNB-75 > 100 µM | T47D > 100 µM | UACC-257 > 100 µM

O=C1CCC2(c3ccccc3)Nc3ccncc3N12 (stereo unspecified)
inactive: 786-0 > 10 µM | A549 > 10 µM | ACHN > 10 µM | BT-549 > 10 µM | CCRF-CEM > 10 µM | HL-60 > 10 µM | HOP-92 > 10 µM | KM12 > 10 µM | MDA-MB-435 > 10 µM | OVCAR-5 > 10 µM | OVCAR-8 > 10 µM | SF-539 > 10 µM | SNB-19 > 10 µM | SNB-75 > 10 µM | SR > 10 µM | T47D > 10 µM | UACC-257 > 10 µM

CC[C@@H]1CC[C@@H]2[C@H](CC[C@]3(C)[C@@H](O)CC[C@@H]23)[C@H]1C(=O)O
inactive: 786-0 > 100 µM | A549 > 100 µM | ACHN > 100 µM | BT-549 > 100 µM | CCRF-CEM > 100 µM | HCC 2998 > 100 µM | HL-60 > 100 µM | HOP-92 > 100 µM | KM12 > 100 µM | MDA-MB-435 > 100 µM | OVCAR-5 > 100 µM | OVCAR-8 > 100 µM | RXF 393 > 100 µM | SF-539 > 100 µM | SK-MEL-28 > 100 µM | SNB-19 > 100 µM | SNB-75 18.8 µM | T47D > 100 µM | UACC-257 > 100 µM

O=C(O)c1cc(O)nc(SCc2ccccc2)n1
inactive: 786-0 > 100 µM | A549 > 100 µM | ACHN > 100 µM | BT-549 > 100 µM | HL-60 > 100 µM | HOP-92 > 100 µM | KM12 > 100 µM | MDA-MB-435 > 100 µM | OVCAR-5 > 100 µM | OVCAR-8 > 100 µM | RXF 393 > 100 µM | SK-MEL-28 > 100 µM | SNB-19 > 100 µM | SNB-75 > 100 µM | SR > 100 µM | T47D > 100 µM | UACC-257 > 100 µM
